Experimental data from ChEMBL document CHEMBL4622849, “Discovery of ethyl ketone-based HDACs 1, 2, and 3 selective inhibitors for HIV latency reactivation” (Bioorg Med Chem Lett, 2020).

Legend:
Format in all cases: ADME, organism-based
Conditions in all cases: in vivo
[1] = AUC in Wistar Han rat at 5 mg/kg, po
[2] = Cmax in Wistar Han rat at 5 mg/kg, po; parameters: dose 5 mg/kg, route oral
[3] = Oral bioavailability in Wistar Han rat at 5 mg/kg
[4] = Half life in Wistar Han rat at 2 mg/kg, iv or 5 mg/kg, po
[5] = Clearance in Wistar Han rat at 2 mg/kg, iv or 5 mg/kg, po

CCC(=O)CCCCC[C@H](NC(=O)[C@H]1CC12CCN(CC)CC2)c1ncc(-c2cc3ccccc3nc2OC)[nH]1
AUC [1]: 1.13 µM·h
Cmax [2]: 260 nM
bioavailability [3]: 5.8%
half-life [4]: 180 min
clearance [5]: 7.2 mL/min/kg
